In patent US6040338A, “N,n-bis(sulfonyl)hydrazines useful as antineoplastic agents” (Yale University, priority 1997, dated 2000):
Entries after “also recorded” stand apart in the source; their conditions may differ. Where a name gives a salt, the structure may show the parent alone.

Assays:
[1] = Activation by hydrolysis in phosphate buffer; type: physicochemical; conditions: 1 mM phosphate buffer, pH 7.4, 37° C.
Protocol: (§1) The rates of activation of compounds 10a-h were measured in 1 mM phosphate buffer (pH 7.4, 37° C.) alone, 1 mM phosphate buffer containing 5 mM GSH (pH 7.4, 37° C.), and in 1 mM phosphate buffer containing 5 mM GSH and 17.5 U/ml of GST (pH 7.4, 37° C.) (Table 3).

GST = assay: Activation by GST-catalyzed thiolysis; type: in vitro ADME; conditions: 1 mM phosphate buffer, 5 mM GSH, 17.5 U/ml GST, pH 7.4, 37° C.
Protocol: as §1

[2] = Activation by thiolysis (GSH); type: in vitro ADME; conditions: 1 mM phosphate buffer, 5 mM GSH, pH 7.4, 37° C.
Protocol: as §1

L1210 leukemia = assay: Survival time and body weight of mice bearing the L1210 leukemia; type: in vivo, mice (CD2 F1); conditions: for % 60-day survivors / Av Δ wt (average percent change in body weight from onset to termination of therapy): Table 4; for % 60-day survivors: i.p. once daily for 6 days at optimum daily dose (30 mg/kg for 10d-g); for Av Δ wt (average percent change in body weight from onset to termination of therapy): i.p. once daily for 6 days at optimum daily dose (10a 60, 10b 25, 10c 12.5, 10d-h 30 mg/kg); for % Body Weight Change / Average Survival / T/C / Long Term Survival: Table 5; for Long Term Survival: survivors/animals
Protocol: The ascites cell form of leukemia L1210 was obtained from the Frederick Cancer Research Facility, Division of Cancer Treatment Tumor Repository of the National Cancer Institute, and was maintained by serial passage in tissue culture. Every 8 weeks, tumor cells were injected intraperitoneally into 5 donor CD2 F1 mice 8-10 weeks of age and were allowed to grow for 7 days. The peritoneal fluid was withdrawn, and the suspension was centrifuged for 5 min at 1600×g. The supernatant was decanted, and 10^5 cells/ml were seeded into 10 ml of RPMI 1640 medium supplemented with 10% fetal bovine serum and 1% L-glutamine (200 mM) and once again maintained in culture. To assay for antitumor activity, 0.1 ml of the cell suspension containing 10^5 leukemia cells was injected into each recipient mouse. […] Each drug was administered intraperitoneally as a solution in 100% dimethyl sulfoxide, in a volume not exceeding 25 μl. […] Mice were weighed during the course of the experiments, and the percentage change in body weight from onset to termination of therapy was used as an indication of drug toxicity. Determination of the sensitivity of neoplasms to these agents was based upon the prolongation of survival time afforded by the drug treatments.
The antitumor activity of compounds 10a-h and 16 were assessed in mice bearing the L1210 leukemia. The results of these tests are summarized in Tables 4 and 5 which show the effects of 2-alkoxycarbonyl- and 2-aryloxycarbonyl-1,2-bis(methylsulfonyl)-1-(2-chloroethyl)hydrazines on the survival time of mice bearing the L1210 leukemia.
In Table 4, the optimum daily dose was administered once per day for six consecutive days, beginning 24 hours after tumor implantation, with 5-10 mice being used per group. In Table 5, multiple dosages of compound 16 are indicated. "Av Δ wt" refers to the average percent change in body weight from onset to termination of therapy. "% T/C" refers to the average survival time of treated/control mice×100. Cures (60-day survivors) are listed separately and are not included in this calculation.

Row | SMILES | Calculated Activation Rate due to Hydrolysis [1] [nmol/mL/min] | Calculated Activation Rate due to Catalyzed Thiolysis (5 mM GSH + 17.5 U/ml GST) (GST) [nmol/mL/min] | Calculated Activation Rate due to Thiolysis (5 mM GSH) [2] [nmol/mL/min] | % 60-day survivors (L1210 leukemia) [%] | Av Δ wt (average percent change in body weight from onset to termination of therapy) (L1210 leukemia) [%] | further results
1 | CS(=O)(=O)N(CCCl)N(C(=O)Oc1ccccc1)S(C)(=O)=O [Compound 10d, 1,2-Bis(methylsulfonyl)-1-(2-chloroethyl)-2-(phenoxycarbonyl)hydrazine] | 0.06 | 1.80 | 0.37 | 40 | -1.0 | –
2 | COC(=O)N(N(CCCl)S(C)(=O)=O)S(C)(=O)=O [Compound 10a, 1,2-Bis(methylsulfonyl)-1-(2-chloroethyl)-2-(methoxycarbonyl)hydrazine] | 0.03 | 0.00 | 0.02 | – | -10.9 | –
3 | CS(=O)(=O)N(CCCl)N(C(=O)OCCCl)S(C)(=O)=O [Compound 10b, 1,2-Bis(methylsulfonyl)-1-(2-chloroethyl)-2-(2-chloroethoxycarbonyl)hydrazine] | 0.02 | 0.08 | 0.02 | – | -10.7 | –
4 | CS(=O)(=O)N(CCCl)N(C(=O)Oc1ccc(Cl)cc1)S(C)(=O)=O [Compound 10f, 1,2-Bis(methylsulfonyl)-1-(2-chloroethyl)-2-[(4-chlorophenoxy)carbonyl]hydrazine] | 0.06 | 5.33 | 0.92 | 80 | -1.1 | –
5 | C=COC(=O)N(N(CCCl)S(C)(=O)=O)S(C)(=O)=O [Compound 10c, 1,2-Bis(methylsulfonyl)-1-(2-chloroethyl)-2-(vinyloxycarbonyl)hydrazine] | 0.07 | 4.70 | 2.07 | – | -12.4 | –
6 | CS(=O)(=O)N(CCCl)N(C(=O)OCOP(=O)(O)O)S(C)(=O)=O [Compound 16, triethanolamine salt of the free acid acid of O-dibenzylphosphate-methyl carbamate] | – | – | – | – | – | % Body Weight Change (L1210 leukemia; multiple dose 6 × 10 mg/kg): -3.6%; Average Survival (L1210 leukemia; multiple dose 6 × 10 mg/kg): 14.7 days; T/C (L1210 leukemia; multiple dose 6 × 10 mg/kg): 184%; Long Term Survival (L1210 leukemia; multiple dose 6 × 10 mg/kg): 2/5; % Body Weight Change (L1210 leukemia; multiple dose 6 × 20 mg/kg): +2.5%; Average Survival (L1210 leukemia; multiple dose 6 × 20 mg/kg): 19.5 days; T/C (L1210 leukemia; multiple dose 6 × 20 mg/kg): 244%; Long Term Survival (L1210 leukemia; multiple dose 6 × 20 mg/kg): 3/5; % Body Weight Change (L1210 leukemia; multiple dose 6 × 40 mg/kg): +3.7%; Long Term Survival (L1210 leukemia; multiple dose 6 × 40 mg/kg): 5/5; % Body Weight Change (L1210 leukemia; multiple dose 6 × 60 mg/kg): -23.2%; Average Survival (L1210 leukemia; multiple dose 6 × 60 mg/kg): 11.0 days; T/C (L1210 leukemia; multiple dose 6 × 60 mg/kg): 138%; Long Term Survival (L1210 leukemia; multiple dose 6 × 60 mg/kg): 3/5; activity against the L1210 leukemia (in words) (L1210 leukemia; i.p. once daily for 6 days): significant activity against the L1210 leukemia tumor; also recorded: significant antitumor activity
7 | Cc1ccc(OC(=O)N(N(CCCl)S(C)(=O)=O)S(C)(=O)=O)cc1 [Compound 10e, 1,2-Bis(methylsulfonyl)-1-(2-chloroethyl)-2-[(4-tolyloxy)carbonyl]hydrazine] | 0.02 | 1.52 | 0.45 | 20 | -3.0 | –
8 | COc1ccc(OC(=O)N(N(CCCl)S(C)(=O)=O)S(C)(=O)=O)cc1 [Compound 10g, 1,2-Bis(methylsulfonyl)-1-(2-chloroethyl)-2-[(4-methoxyphenoxy)carbonyl]hydrazine] | 0.14 | 1.80 | 0.41 | 40 | -2.5 | –
